Assays:
[1] = Area under the concentration time curve in rat after 40 mg/kg oral dosage; format: ADME, organism-based; set-up: dose 40 mg/kg, route oral; unit not given here; details: in vivo
[2] = pKa value was determined; format: physicochemical
[3] = Area under the concentration time curve in human after 100 mg/kg oral dosage; format: ADME, organism-based; set-up: dose 100 mg/kg, route oral; unit not given here; details: in vivo

| Compound | AUC [1] | pKa [2] | AUC [3] |
| --- | --- | --- | --- |
| N#Cc1ccc(Nc2nc(N)nc(Cc3c(Cl)ccc4[nH]ccc34)n2)cc1 | 67.5 | 3.3 |  |
| N#Cc1ccc(Nc2nc(N)nc(Oc3c(Cl)cccc3Cl)n2)cc1 | 0.6 | 1.9 |  |
| N#Cc1ccc(Nc2nc(Cc3c(Cl)cccc3Cl)nc(NO)n2)cc1 | 0.1 | 2.5 | 0.1 |
| Cc1cc(C#N)cc(C)c1Oc1nc(Nc2ccc(C#N)cc2)ncc1Br |  | 2.7 |  |
| Cc1cc(C#N)cc(C)c1Oc1nc(Nc2ccc(C#N)cc2)nc(N)c1Br [ETRAVIRINE] |  | 3.5 |  |
| N#Cc1ccc(Nc2nc(N)cc(Cc3c(Cl)cccc3Cl)n2)cc1 | 7.3 |  |  |
| Cc1cc(C#N)cc(C)c1Oc1nc(Nc2ccc(C#N)cc2)nc(CO)c1Br | 0.6 | 2 |  |
| N#Cc1ccc(Nc2nc(N)nc(Cc3c(Cl)cccc3Cl)n2)cc1 | 1.5 | 3.1 |  |
| N#Cc1ccc(Nc2nc(N)nc(Cc3c(Cl)ccc(Cl)c3Cl)n2)cc1 | 4.4 | 2.8 |  |

Continued, values first:

| AUC [1] | pKa [2] | AUC [3] | Compound |
| --- | --- | --- | --- |
| 49.3 | 5.1 | 8.2 | Cc1cc(C#N)cc(C)c1Nc1ccnc(Nc2ccc(C#N)cc2)n1 |
|  | 3.6 |  | Cc1cc(C)c(Nc2nc(Nc3ccc(C#N)cc3)ncc2Cl)c(C)c1 |
|  | 2.6 |  | Cc1cc(C)c(Nc2ncnc(Nc3ccc(C#N)cc3)n2)c(C)c1 |
|  | 3.8 |  | Cc1cc(C)c(Nc2nc(N)nc(Nc3ccc(C#N)cc3)n2)c(C)c1 |
